How the values were obtained:
HCC-44 = experiment: MTT viability assay, HCC-44; type: cell-based, human; details: mean ± span, 48 h treatment, cell line with KRAS mutation
Procedure: (§1) NSCLC cell lines were obtained from the Hamon Center for Therapeutic Oncology Research (UT Southwestern Medical Center). IMR-90 human lung fibroblasts were from ATCC (CC-186). All cell lines were maintained and treated in RPMI medium (Cytiva (Shanghai, China), #SH30027), supplemented with 10% heat-inactivated FBS (Millipore Sigma (Darmstadt, Germany), F0394).
(§2) 5000–10,000 cells/0.1 mL/well were seeded in 96-well plates to achieve 70% confluence after 24 h. All drug stock solutions were prepared fresh in DMSO at a concentration of 10 mM. The day after cell plating, we added 0.1 mL of medium containing the appropriate drug dilutions. After 48 h of treatment, 10 μL of MTT solution (5 mg/mL) was added to each well. After 4 h incubation, the medium was aspirated, and the formazan salts dissolved in 200 μL DMSO/well for 10 min at 37 °C. The absorbance was read at 570 nm (OD 570 nm). Data are represented as mean ± SD of two independent experiments.
(§3) Statistical and data analysis was performed using GraphPad Prism (v10). IC50 values were calculated using a three-parameter non-linear regression model with log(inhibitor) vs. response. For the TxrR activity statistics, the groups were compared using a two-way ANOVA followed by Dunnett’s multiple comparisons with alpha = 0.05. The correlation between IC50 values and TxrR activity was achieved using Pearson correlation with alpha = 0.05.

H1355 = experiment: MTT viability assay, H1355; type: cell-based, human; details: mean ± span, 48 h treatment, cell line with KRAS mutation
Procedure: as §1, §2, §3

A549 = experiment: MTT viability assay, A549; type: cell-based, human; details: mean ± span, 48 h treatment, cell line with KRAS mutation
Procedure: as §1, §2, §3

H522 = experiment: MTT viability assay, H522; type: cell-based, human; details: mean ± span, 48 h treatment, cell line without KRAS mutation
Procedure: as §1, §2, §3

[1] = Solution stability by UV-visible spectra over time; type: physicochemical; details: UV-visible spectra over time; DMSO, methanol, PBS buffered solutions
Procedure: Stability studies were led by acquiring UV−visible spectra of 100 µM DMSO or methanol solutions of compounds 1∓8 over time (Figures S19–S29 in Supplementary Materials). […] The stability of NHC-AuX3 complexes (with X = Cl, compounds 1 and 2, with X = Br, compounds 5 and 6) was affected by the nature of both the substituents on the imidazolyl ligand and of the halide, showing a small decrease of the UV bands maxima in an hour. By analyzing the spectral data of compounds 1 and 2, a percent concentration reduction of about 4–5% was estimated within an hour, grading them eligible for biological tests. The partial instability may be attributed to the formation of cationic bis-carbeneAuCl2 species (Equation (1)), with the [bis-carbeneAuX2]^+ and the respective AuX2^−; these ions were actually detected as positive and negative ions in the ESI-MS spectra (see Figures S12 and S13). […] Additionally, the (+)ESI MS spectrum of the acetonitrile solution of compound 6 is particularly rich in positive ions (Figure S16). As concerns the mono-/bis-carbene formation, it is likely initiated by the large trans effect of the carbene ligands, which induces the chemical lability on the trans halide, triggers […], the formation of bis-carbeneAu(III) species, and AuX2^− or AuX4^− anions:2[NHC-AuX3] ⇔ [[(NHC)2AuX2] [AuX2^−] + 2X(1) […]
The stability of the samples 1-8 in DMSO solution was assayed by UV-visible spectroscopy. Spectra were acquired using the Shimadzu UV-2700i spectrophotometer, equipped with the Shimadzu CPS-100 Peltier, at 293 K. Unless diversely specified, 100 µM DMSO solutions of the 1-8 compounds were prepared and spectra were acquired each 10 minutes for a total of 60 minutes. The spectra obtained are reported as following.
Figure S19. UV-Visible Spectra acquired for complex 1.
Figure S20. UV-Visible Spectra acquired for complex 2. […]

IMR90 = experiment: MTT viability assay, IMR90 non-transformed lung fibroblasts; type: cell-based, human; details: for selectivity for the NSCLC cell lines over the lung fibroblasts: IMR90 vs NSCLC cell lines, MTT 48 h; for IC50: mean ± span, 48 h treatment, MTT, non-transformed human lung fibroblasts
Procedure: as §1, §2, §3

H1993 = experiment: MTT viability assay, H1993; type: cell-based, human; details: mean ± span, 48 h treatment, cell line without KRAS mutation
Procedure: as §1, §2, §3

H1395 = experiment: MTT viability assay, H1395; type: cell-based, human; details: mean ± span, 48 h treatment, cell line without KRAS mutation
Procedure: as §1, §2, §3

H661 = experiment: MTT viability assay, H661; type: cell-based, human; details: mean ± span, 48 h treatment, cell line without KRAS mutation
Procedure: as §1, §2, §3

SMILES	IC50 (HCC-44) [µM]	IC50 (H1355) [µM]	IC50 (A549) [µM]	IC50 (H522) [µM]	stability in solution [1]	selectivity for the NSCLC cell lines over the lung fibroblasts (IMR90)	IC50 (IMR90) [µM]	IC50 (H1993) [µM]	IC50 (H1395) [µM]	IC50 (H661) [µM]
Clc1n[c]([Au-][P+](c2ccccc2)(c2ccccc2)c2ccccc2)n(Cc2ccccc2)c1Cl [Compound 7]	9.2 ± 1.02	7.8 ± 0.61	16 ± 1.3	6.5 ± 0.97	highest stability in solution	good selectivity	63 ± 2.5	1.8 ± 0.96	6.3 ± 0.98	0.95 ± 1
Cn1cc[n+](C)[c]1[Au-2]([Cl])[P+](c1ccccc1)(c1ccccc1)c1ccccc1 [Compound 8]	7.3 ± 1.05	6.4 ± 0.65	9.1 ± 1.2	3.3 ± 0.93	highest stability in solution	good selectivity	87 ± 4.9	1.8 ± 1.05	5.9 ± 0.97	1.1 ± 1.1
